How the values were obtained:
Format in all cases: physicochemical
[1] = Batch extraction from simulated HLLW from the PUREX process; details: 0.1 mol/L in TPH/1-octanol (90:10)
From the text: (§1) The feed solution used for the extraction tests is a simulated solution of an HLLW from the PUREX process, the composition of which is shown in Table 4. Table 4: Composition of the simulated HLLW-PUREX solution used for the extraction tests
(§2) The composition of the HLLW corresponds to a burn-up of 33 GWd/tHM, the generated volume of HLLW being 5000 1/t of fuel. The feed was spiked with ^241Am, ^244Cm, ^252Cf and ^152Eu. Oxalic acid and N-(2-hydroxyethyl)ethylenediaminotriacetate (HEDTA) were also added before the extraction tests.
(§3) 500 µL of the aqueous and organic phases were spiked with 10 µL of a tracer solution containing 241Am, 244Cm, 252Cf and ^152Eu, and were equilibrated for 10 minutes while they were stirred vigorously in a vortex stirrer. After the separation of the phases by centrifugation, 200 µL aliquots of each phase were taken for the determination of the concentration of ^241Am and ^152Eu using a high-purity germanium spectrometer system (EG&G Ortec). The nuclides ^241Am, ^244Cm and ^252Cf were measured by alpha spectrometry with an α-Analyst device of the company Canberra-Packard GmbH, Germany.
(§4) The concentrations of the stable elements were determined by mass spectrometry with an inductively coupled plasma source (ICP-MS) in a DRC Elan 6100 device of Perkin Elmer Sciex. The aqueous phase was measured directly after the appropriate dilution. The organic phase was analyzed after having mineralized the organic matter by microwave acid digestion and subsequent dilution.
(§5) The distribution coefficients were calculated for each element according to section C).
(§6) Extraction experiments were carried out with said simulated HLLW in a pure form and also adding oxalic acid and HEDTA to it.

[2] = as above; details: 0.1 mol/L in TPH/1-octanol (90:10); remark: listed apart in the source
From the text: as §1, §2, §3, §4, §5
A 0.1 mol/L solution of compound 4 in the "TPH/1-octanol (90:10)%vol" mixture was prepared. Extraction experiments were carried out with said simulated HLLW in a pure form and also adding oxalic acid and HEDTA to it. These complexing agents have shown to be effective in the DIAMEX process for the complexing of Mo, Zr (H2C2O4) and Pd (HEDTA).

[3] = as above; details: for Distribution coefficients Sr: 0.1 mol/L in TPH/1-octanol (90:10)
Procedure: as §1
The composition of the HLLW corresponds to a burn-up of 33 GWd/tHM, the generated volume of HLLW being 5000 1/t of fuel. […] Oxalic acid and N-(2-hydroxyethyl)ethylenediaminotriacetate (HEDTA) were also added before the extraction tests.
as §4, §5, §6, §6

[4] = Extraction capability at different nitric acid concentrations in the aqueous phase; details: 0.1 mol/L in 1-octanol or TPH/1-octanol mixtures
Procedure: The organic solutions were prepared as indicated previously in section A). The aqueous solutions consisted of nitric acid solutions at different concentrations (0.06 mol/L, 0.11 mol/L, 0.65 mol/L, 1.0 mol/L, 3.1 mol/L and 6.7 mol/L) each of them spiked with 600 Bq of ^152Eu and 600 Bq of ^241Am. The nitric acid concentration of these solutions was determined by a potentiometric titration before and after the extraction equilibrium.
The organic solutions of the compound to be studied were equilibrated with the corresponding aqueous solution, according to the different nitric acid concentrations considered, as indicated previously in section B).
600 µL of equilibrated organic phase were contacted with 600 µL of the aqueous phase of the corresponding nitric acid concentration. […]
The influence of the concentration of aqueous nitric acid of the aqueous phase, from 0.05 mol/L to 7 mol/L, on the extraction of Am/Eu with compound 4 was studied in different TPH/1-octanol mixtures as solvent, and also in 100% 1-octanol. To that end, the distribution coefficients of Am(III) and Eu(III) were determined for compound 4 dissolved at 0.1 mol/L in 1-octanol and in the following TPH/1-octanol mixtures: 50:50, 75:25 and 90:10 by volume, for the following nitric acid concentrations of the solution containing Am(III)/Eu(III): 0.06 mol/L; 0.11 mol/L; 0.65 mol/L; 1.0 mol/L; 3.1 mol/L and 6.7 mol/L. […]

[5] = Oxalic acid 0.2 mol/L, HEDTA 0.05 mol/L, TBP 0.5 mol/L
[6] = Oxalic acid 0.2 mol/L, HEDTA 0.05 mol/L, TBP No
[7] = Oxalic acid 0.3 mol/L, HEDTA 0.05 mol/L, TBP 0.5 mol/L
[8] = Oxalic acid 0.3 mol/L, HEDTA 0.05 mol/L, TBP No
[9] = Oxalic acid No, HEDTA No, TBP 0.5 mol/L
[10] = Oxalic acid No, HEDTA No, TBP No

## 2-Dioctylcarbamoylmethoxy-N-[3-[3-(2-dioctylcarbamoyl-methoxyacetylamino)propoxy]propyl]acetamide [Compound 18]
[1]; [5]
  Distribution coefficients Cr: 0.006
  Distribution coefficients Cu: 0.085
  Distribution coefficients Fe: 0.001
  Distribution coefficients Ni: 0.015
[1]; [6]
  Distribution coefficients Cr: 0.006
  Distribution coefficients Cu: 0.075
  Distribution coefficients Fe: 0.001
  Distribution coefficients Ni: 0.014
[1]; [7]
  Distribution coefficients Cr: 0.006
  Distribution coefficients Cu: 0.093
  Distribution coefficients Fe: 0.009
  Distribution coefficients Ni: 0.015
[1]; [8]
  Distribution coefficients Cr: 0.006
  Distribution coefficients Cu: 0.083
  Distribution coefficients Fe: 0.001
  Distribution coefficients Ni: 0.014
[1]; [9]
  Distribution coefficients Cr: 0.006
  Distribution coefficients Cu: 0.067
  Distribution coefficients Fe: 0.001
  Distribution coefficients Ni: 0.014
[1]; [10]
  Distribution coefficients Cr: 0.006
  Distribution coefficients Cu: 0.064
  Distribution coefficients Fe: 0.001
  Distribution coefficients Ni: 0.014

## 2-Dioctylcarbamoylmethoxy-N-[3-[(2-dioctylcarbamoyl-methoxy-acetylamino)methyl]benzyl]acetamide [Compound 4]
[2]; [5]
  Distribution coefficients Dy: 86
  Distribution coefficients Sb: 0.012
  Distribution coefficients Sn: 0.0087
  Distribution coefficients Tb: 54
  Distribution coefficients Te: 0.0012
[2]; [6]
  Distribution coefficients Dy: 171
  Distribution coefficients Sb: 0.011
  Distribution coefficients Sn: 0.0076
  Distribution coefficients Tb: 153
  Distribution coefficients Te: 0.0014
[2]; [7]
  Distribution coefficients Dy: 184
  Distribution coefficients Sb: 0.011
  Distribution coefficients Sn: 0.0072
  Distribution coefficients Tb: 77
  Distribution coefficients Te: 0.0011
[2]; [8]
  Distribution coefficients Dy: 195
  Distribution coefficients Sb: 0.012
  Distribution coefficients Sn: 0.0092
  Distribution coefficients Tb: 107
  Distribution coefficients Te: 0.0012
[2]; [9]
  Distribution coefficients Dy: 64
  Distribution coefficients Sb: 0.011
  Distribution coefficients Sn: 0.0089
  Distribution coefficients Tb: 57
  Distribution coefficients Te: 0.0012
[2]; [10]
  Distribution coefficients Dy: 141
  Distribution coefficients Sb: 0.012
  Distribution coefficients Sn: 0.0073
  Distribution coefficients Tb: 123
  Distribution coefficients Te: 0.0011
[3]
  factor by which the Sr distribution coefficient is lower than that obtained with TODGA: 10
[3]; 0.1 mol/L in TPH/1-octanol (90:10)%vol, summary of all conditions
  Dsr: < 0.13
[3]; [5]
  Distribution coefficients Sr: 0.071
[3]; [6]
  Distribution coefficients Sr: 0.110
[3]; [7]
  Distribution coefficients Sr: 0.099
[3]; [8]
  Distribution coefficients Sr: 0.132
[3]; [9]
  Distribution coefficients Sr: 0.061
[3]; [10]
  Distribution coefficients Sr: 0.071
[4]
  extraction capability at diluted nitric acid concentrations: very low

Source: patent EP1923473B1, “Bis-diglycolamides (BISDGA) as new extractants for lanthanides [Ln(III)] and actinides [An(III)] from aqueous high-level wastes” (Universidad Autónoma de Madrid, priority 2006, dated 2008)
